Assays:
procaspase-3 = molecular target: T1, procaspase-3 (Homo sapiens, UniProt P42574); test: Procaspase-3 activity assay (relief of zinc-mediated inhibition, Ac-DEVD-pNA cleavage); type: biochemical; conditions: procaspase-3 incubated with […] ZnSO4; method gives compounds at 25 μM
T1 construct: 6xHis (C); made in house; host or cells: Rosetta E. coli
T1 sequence (P42574 1-277): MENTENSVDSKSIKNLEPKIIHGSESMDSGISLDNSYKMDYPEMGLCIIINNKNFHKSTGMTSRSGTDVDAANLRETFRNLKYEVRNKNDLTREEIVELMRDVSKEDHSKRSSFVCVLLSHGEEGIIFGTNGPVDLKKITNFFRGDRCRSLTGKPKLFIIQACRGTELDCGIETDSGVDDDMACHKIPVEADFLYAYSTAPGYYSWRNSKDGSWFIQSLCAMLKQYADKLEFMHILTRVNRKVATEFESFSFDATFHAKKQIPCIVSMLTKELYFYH
Description: The six confirmed hits were then evaluated in vitro for their ability to relieve zinc-mediated inhibition of procaspase-3 (Table A). In this experiment, procaspase-3 was incubated with ZnSO4, conditions in which procaspase-3 has no enzymatic activity.
Techniques adapted from Hergenrother and coworkers (Putt et al., Nat Chem Biol 2006, 2, 543-550). A 20 mL volume of an overnight culture of Rosetta E. coli containing the procaspase-3 (wild-type) expression plasmid was seeded into 2 L of LB media containing ampicillin. The culture was grown to an OD600=1.0, at which point protein expression was induced via addition of IPTG (to 1 mM); the culture was allowed to grow for 30 additional minutes. Cells were then harvested (10 minute spins at 10,000×g and re-suspended in NTA binding buffer (300 mM NaCl, 50 mM Tris, 10 mM imidazole, pH 8.0). The cells were lysed on ice via sonication. The cell lysate was then spun at 35,000×g for […] The supernatant was decanted and 1 mL of nickel-NTA resin was added. The cell lysate was incubated for 45 minutes at 4° C. The resin was loaded on a column, washed with 10 mL NTA binding buffer followed by 10 mL NTA wash buffer (300 mM NaCl, 50 mM Tris, 50 mM imidazole, pH 8.0). The proteins were eluted in 0.5 mL fractions with 10 mL of NTA elution buffer (300 mM NaCl, 50 mM Tris, 500 mM imidazole, pH 8.0). Fractions containing protein were pooled and further purified to remove any contaminating zinc by applying the protein to a PD-10 column (GE Healthcare) charged with Caspase Activity Buffer that had been treated with Chelex® resin. The resulting concentration was determined using the Edelhoch method and the molar absorptivity of procaspase-3 of 26150 M^−1 cm^−1. Protein stocks were flash-frozen in liquid nitrogen and stored at −80° C.
In a 384-well plate recombinantly expressed, zinc-free procaspase-3 (wild type, at 1 μM) in Caspase Activity Buffer (50 mM HEPES, 300 mM NaCl, 1.5 mM TCEP, 0.01% TritonX-100) was incubated at 37° C. in the presence of 3.5 μM ZnSO4 and the basal activity was assessed via the addition of Ac-DEVD-pNA (final concentration in well of 200 μM). The absorbance at 405 nm was monitored with a SpectraMax plate reader (Molecular Devices). […] Activity of each treatment was assessed at 5, 20, 40 and 60 minutes via 5-minute kinetic reads. The slope of each data set was used to determine the activity of the protein. Activity was normalized to a percent activity at each time point using a zinc-free sample and a zinc-inhibited sample treated with DMSO.

[1] = tested on: U-937 cells (human lymphoma); test: 72 Hour IC50 cell death assay (sulforhodamine B); type: cell-based; conditions: U-937, 72 h, read-out: U-937 72 h IC50 (μM)
Description: After the synthesis was complete, the biological activity of the compounds was evaluated.
U-937 human lymphoma cells were plated into the wells of 96 well plate at a density of 15,000 cells per well in 99 μL of RPMI 1640 growth media with 10% FBS and 1% pen-strep. To each well was added 1 μL of compound stock solutions in DMSO at varying concentrations such that the cells were treated with concentrations between 0 μM and 100 μM compound. Each concentration was tested in quintuplicate per plate. In each plate 5 wells received 20 μM doxorubicin as a positive death control and 5 wells received 1 μL of DMSO as a negative control.
After the 72 hour incubation period, the plates were analyzed using a Sulforhodamine B assay (Vichai and Kirtikara, Nat Protoc 2006, 1, 1112-1116). Specifically, to each well of the plate 25 μL of a 50% (w/v) solution of trichloroacetic acid in H2O was added and the plates were incubated for 4 hours at 4° C. The plates were then washed gently with water five times. The plates were allowed to air dry after which 100 μL of a 0.057% (w/v) Sulforhodamine B in a 1% (v/v) acetic acid solution was added to each well for 30 minutes at room temperature. The plates were gently washed 5 times with 1% (v/v) acetic acid and air dried. 200 μL of 10 mM Tris base (pH 10.4) was added to each well and the plates were placed on an orbital shaker for thirty minutes. The level of SRB was quantified fluorometrically at excitation and emission wavelengths 488 and 585 nm, respectively, on a Molecular Devices plate reader and the percent cell death calculated and normalized to the positive control (100% cell death) and the negative control (0% cell death). The percent cell death was averaged for each compound concentration and plotted as a function of compound concentration. The data were fit to a logistical dose response curve using Table curve 2D and the IC50 value was calculated. The experiment was repeated three times and the average of the calculated IC50 values was reported. The standard error of the mean (SEM) was determined and reported for the triplicate experiments.

[2] = Liver microsome stability assay; type: in vitro ADME; conditions: rat liver microsomes, 10 μM, LC/MS
Description: FIG. 4. Liver Microsome Stability Assay. Compounds (10 μM) incubated with liver microsomes for 3 h and quenched with MeCN containing internal standard, analyzed by LC/MS (280 nm). Next, the metabolic stability of the compounds was evaluated in rat liver microsomes. The compounds were evaluated for 3 hours at 10 μM, and the metabolites were observed by LC/MS.

mice = test: Assessment of toxicity in vivo; conditions: mouse, in vivo
Source text: The level of toxicity was rated on a scale of 0 (no observable adverse effect) to 3 (severe toxicity, almost fatal).

Row | Compound | Procaspase-3 (% Activity at […]) (procaspase-3) | other results
1 | COc1ccc(CN2CCN(CC(=O)N/N=C/c3cc(C(C)(C)C)cc(C(C)(C)C)c3O)CC2)cc1 [3{2,7}] | 53 ± 4.1% | –
2 | COc1ccc(OC)c(CN2CCN(CC(=O)N/N=C/c3cc(C(C)(C)C)cc(C(C)(C)C)c3O)CC2)c1 [3{4,7}] | 64 ± 2.5% | –
3 | CC(C)(C)c1cc(/C=N/NC(=O)CN2CCN(Cc3ccc(OCc4ccccc4)cc3)CC2)c(O)c(C(C)(C)C)c1 [3{18,7}] | 36 ± 1.6% | –
4 | C=CCc1cccc(/C=N/NC(=O)CN2CCN(Cc3ccc(C(C)(C)C)cc3)CC2)c1O [3{20,24}, N′-(3-allyl-2-hydroxybenzylidene)-2-(4-(4-(tert-butyl)benzyl)piperazin-1-yl)acetohydrazide] | 82 ± 2.4% | –
5 | CC(C)(C)c1cc(/C=N/NC(=O)CN2CCN(Cc3ccc4ccccc4c3)CC2)c(O)c(C(C)(C)C)c1 [3{25,7}] | 69 ± 5.3% | –
6 | CCc1ccc(CN2CCN(CC(=O)N/N=C/c3cc(C(C)(C)C)cc(C(C)(C)C)c3O)CC2)cc1 [3{28,7}] | 60 ± 2.4% | –
7 | C=CCc1cccc(/C=N/NC(=O)CN2CCN(Cc3ccccc3)CC2)c1O [PAC-1, Procaspase-Activating Compound 1, reference compound] | 42 ± 1.8% | IC50 [1]: 10.2 ± 0.3 µM; RLM 3 h % Stability [2]: 38 ± 2%; Mouse Toxicity (mice): 3
8 | C=CCc1cccc(/C=N/NC(=O)CN2CCN(Cc3ccc(S(N)(=O)=O)cc3)CC2)c1O [S-PAC-1, reference compound] | 4 ± 0.6% | RLM 3 h % Stability [2]: reasonably stable; RLM 3 h % Stability ([2]; listed as 2 (S-PAC-1)): 84 ± 0%

From US9249116B2, “Enzyme-activating compounds and compositions” (The Board of Trustees of the University of Illinois, priority 2012, dated 2016)
